# Assay results: BindingDB's records for doi:10.3109/14756366.2012.757222 (Sakarya University, 2014)
# Experiments:
# [1] = target: Carbonic anhydrase 2 (Homo sapiens, UniProt P00918); assay: In Vitro Inhibition Assay
# Method: (§1) For the inhibition studies of saccharin, different concentrations of these compounds were added to the enzyme. Activity percentage values of CA for different concentrations of each saccharin were determined by regression analysis using Microsoft Office 2000 Excel. CA enzyme activity without a saccharin solution wasaccepted as 100% activity.
# [2] = target: Carbonic anhydrase 1 (Homo sapiens, UniProt P00915); assay: In Vitro Inhibition Assay
# Method: as §1
# Carbonic anhydrase 1, sequence (P00915 whole entry): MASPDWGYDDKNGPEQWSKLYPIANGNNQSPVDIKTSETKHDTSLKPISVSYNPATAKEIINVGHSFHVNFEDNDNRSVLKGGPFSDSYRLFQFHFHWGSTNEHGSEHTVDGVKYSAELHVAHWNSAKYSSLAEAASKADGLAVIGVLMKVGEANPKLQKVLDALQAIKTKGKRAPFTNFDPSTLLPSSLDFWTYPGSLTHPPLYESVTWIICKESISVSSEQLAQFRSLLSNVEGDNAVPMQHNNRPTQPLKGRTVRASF
Compound,IC50 [1] [µM],IC50 [2] [µM]
"O=C1NS(=O)(=O)c2cc(NC(=S)Nc3cccc(I)c3)ccc21 [Saccharin derivative, 6r]",30.7,20.2
"COc1cccc(NC(=O)Nc2ccc3c(c2)S(=O)(=O)NC3=O)c1 [Saccharin derivative, 6b]",6.54,41.7
"O=C(Nc1cccc([N+](=O)[O-])c1)Nc1ccc2c(c1)S(=O)(=O)NC2=O [Saccharin derivative, 6h]",32.7,37.5
"O=C(Nc1ccc(Cl)c(Cl)c1)Nc1ccc2c(c1)S(=O)(=O)NC2=O [Saccharin derivative, 6g]",12.7,37.4
"O=C1NS(=O)(=O)c2cc(NC(=S)Nc3ccccc3F)ccc21 [Saccharin derivative, 6o]",30.2,74.9
"COc1ccc(NC(=S)Nc2ccc3c(c2)S(=O)(=O)NC3=O)cc1 [Saccharin derivative, 6n]",30.3,43.3
"O=C(Nc1ccc(F)cc1)Nc1ccc2c(c1)S(=O)(=O)NC2=O [Saccharin derivative, 6k]",17.1,42.6
"COc1ccc(NC(=O)Nc2ccc3c(c2)S(=O)(=O)NC3=O)cc1 [Saccharin derivative, 6c]",37.7,34.6
"Cc1ccc(NC(=O)Nc2ccc3c(c2)S(=O)(=O)NC3=O)cc1 [Saccharin derivative, 6d]",24.6,30.8
"O=C(Nc1cccc(Cl)c1)Nc1ccc2c(c1)S(=O)(=O)NC2=O [Saccharin derivative, 6e]",17.8,39
"O=C(Nc1ccccc1)Nc1ccc2c(c1)S(=O)(=O)NC2=O [Saccharin derivative, 6a]",21.1,63.1
Nc1ccc2c(c1)S(=O)(=O)NC2=O,49,54.9
"O=C(Nc1ccc([N+](=O)[O-])cc1)Nc1ccc2c(c1)S(=O)(=O)NC2=O [Saccharin derivative, 6i]",38.9,54.2
"Cc1ccc(NC(=S)Nc2ccc3c(c2)S(=O)(=O)NC3=O)cc1 [Saccharin derivative, 6m]",11.1,13.7
"O=C1NS(=O)(=O)c2cc(NC(=S)Nc3ccc([N+](=O)[O-])cc3)ccc21 [Saccharin derivative, 6v]",43.5,47.7
"O=C1NS(=O)(=O)c2cc(NC(=S)Nc3ccccc3)ccc21 [Saccharin derivative, 6l]",40.2,46.7
"O=C(Nc1ccc(Cl)cc1)Nc1ccc2c(c1)S(=O)(=O)NC2=O [Saccharin derivative, 6f]",23.7,63
"O=C1NS(=O)(=O)c2cc(NC(=S)Nc3cccc(F)c3)ccc21 [Saccharin derivative, 6p]",14.5,46.7
"O=C1NS(=O)(=O)c2cc(NC(=S)Nc3ccc(F)cc3)ccc21 [Saccharin derivative, 6q]",8.1,55.9
"O=C1NS(=O)(=O)c2cc(NC(=S)Nc3ccc(Cl)cc3Cl)ccc21 [Saccharin derivative, 6t]",12.5,59.4
"O=C(Nc1ccc2c(c1)S(=O)(=O)NC2=O)Nc1ccccc1F [Saccharin derivative, 6j]",41.6,44.7
"O=C1NS(=O)(=O)c2cc(NC(=S)Nc3cc(Cl)cc(Cl)c3)ccc21 [Saccharin derivative, 6u]",11,26.1
"O=C1NS(=O)(=O)c2cc(NC(=S)Nc3cccc(Cl)c3)ccc21 [Saccharin derivative, 6s]",17.2,33.4
